Data on two molecules can be found in patent publication US20230416684A1, “COMPOSITION FOR PREVENTING OR TREATING MUSCLE DISEASES, CONTAINING STEM CELLS IN WHICH GRO-ALPHA IS EXPRESSED OR GRO-ALPHA” (SAMSUNG LIFE PUBLIC WELFARE FOUNDATION, priority 2020, published 2023).

The test system of assay [1] is C2C12 cells. As to the kind of experiment: Cell morphology and cell viability of lovastatin death-induced C2C12 cells treated with GRO-α at different concentrations. It counts as cell-based, mouse.
Assay [2] has as its system necrosis markers in C2C12 cells. The assay is described as follows: Western blotting of necrosis markers in lovastatin death-induced C2C12 cells treated with GRO-α at different concentrations. It counts as cell-based, mouse. Conditions: FIGS. 4C and 4D. On the procedure: To confirm the inhibitory effects of the PL-MSCs and WJ-MSCs on the cell death, apoptosis markers and necrosis markers expressed in the mouse skeletal muscle myoblasts were confirmed by western blotting. In detail, after collecting the cells and breaking the cell membrane by using a buffer in which RIPA buffer and urea buffer were mixed at a ratio of 1:1, centrifugation was performed thereon, and the supernatant thus obtained was collected and subjected to the Bradford assay (Bio-rad, USA) to quantify proteins in the cells. After loading 20 μg of the proteins of from each sample on a gel, electrophoresis was performed on the gel by using SDS. After transferring the proteins to a polyvinylidene fluoride (PVDF) membrane, a 1× tris-buffered saline with 0.1% Tween 20 (TBST) solution to which 5% skimmed milk (BD Difco, USA) was added, followed by culturing at room temperature for 1 hour. Afterwards, the proteins were treated with PARP (1:1000, Cell signaling, USA), cleaved caspase-3 (1:1000, Cell signaling, USA), phospho-RIP3 (1:1000, Cell signaling, USA), and phospho-MLKL (1:1000, Cell signaling, USA) and beta actin (1:5000; Santa Cruz, USA) antibodies, followed by culturing overnight at 4° C. Next, the proteins were treated with secondary antibodies (anti-Rabbbit IgG-HRP; ABCIon, Korea) at room temperature for 1 hour, and blots were developed by using ECL (Bio-rad, USA). […]
Background: In western blotting, separated proteins are transferred to a membrane and probed.

For assay [3] the test system is unchanged. As to the kind of experiment: Western blotting of necrosis markers in lovastatin death-induced C2C12 cells treated with GSK′872 and GRO-α individually or in combination. It counts as cell-based, mouse. Conditions: FIGS. 5C and 5D.
The subject of assay [4] is C2C12 cells. The assay is described as follows: Cell morphology and cell viability of lovastatin death-induced C2C12 cells treated with GSK′872 and GRO-α individually or in combination. The format is cell-based, mouse. As to conditions: GRO-α 200 μg/mL; for cell proliferation (cell morphology) / cell viability: GSK 3 μm pretreatment 3 hours; for cell proliferation (cell morphology): cultured for 48, FIG. 5A; for cell viability: cultured for 48, FIG. 5B. On the procedure:
Inhibitory effects of GSK′827 and GRO-α, known as […] that block the RIP-3 pathway, on cell death of skeletal muscle myoblasts were compared. In detail, skeletal muscle myoblasts of the cell death-induced mouse by lovastatin treatment were pretreated with 3 μm of GSK′827 for 3 hours, followed by washing with 1×PBS. The medium was replaced by a serum-free medium, and GRO-α was diluted therein to a final concentration of […]/mL. Then, the cells were treated with GRO-α and GSK′827 individually or in combination, followed by culturing for 48 to observe the cell morphology.

The subject of assay [5] is phospho-MLKL. The assay is described as follows: Western blot of phospho-MLKL in muscles of MDX mouse injected with WJ-MSCs or GRO-α. The format is in vivo. Conditions: muscles of MDX mouse after injection; protein level, FIG. 6B. On the procedure: (§1) Based on the results of Examples 1 to 3, the efficacy of GRO-α on prevention or treatment of muscle diseases was confirmed in an MDX mouse (a mouse model for duchenne muscular dystrophy). In detail, the MDX mouse was intravenously and intraperitoneally injected with each of WJ-MSC and GRO-α. After one week, blood was collected from the heart of the mouse, centrifuged at 15,500×g for 10 minutes to separate serum, and then, activity of creatine kinase was measured.
(§2) The expression levels of necrosis markers in muscles of the […] injected with WJ-MSCs and GRO-α were confirmed in Example 4-1. In detail, the muscle tissue of the mouse was ground with liquid nitrogen into a minimum size in a mortar, added to an E-tube, and then subjected to sonication with lysis buffer (urea+RIPA=1:1). Afterwards, the supernatant was collected, and proteins in the tissue were quantified according to the Bradford assay (Bio-rad, USA). Then, proteins were detected by using western blot.

Assay [6] deals with MDX mouse (a mouse model for duchenne muscular dystrophy). As to the kind of experiment: Activity of creatine kinase in serum of MDX mouse injected with WJ-MSC or GRO-α. It counts as in vivo. Conditions: intravenous and intraperitoneal injection, serum after one week, FIG. 6A. The protocol: as §1
For assay [7], the system named is phospho-RIP3. The assay is described as follows: Western blot of phospho-RIP3 in muscles of MDX mouse injected with WJ-MSCs or GRO-α. As to conditions: muscles of MDX mouse after injection; protein level, FIG. 6C. It counts as in vivo. On the procedure: as §1, §2

Turning to growth-regulated oncogene-alpha (GRO-α), the “cell viability, among concentration groups” value in assay [1] (group treated with 100 ng/mL of GRO-α, FIG. 4B) is reported as “the highest”. For the same molecule, the cell proliferation rate result in assay [1] (lovastatin death-induced C2C12 cells treated with GRO-α, FIG. 4A) is listed as “increased”. Moreover, the cell viability result in assay [1] (lovastatin death-induced C2C12 cells, after 24 hours of treatment with GRO-α, FIG. 4B) is reported as “significantly increased”. The “expression of necrosis markers” value in assay [2] is recorded as “inhibited the expression of the necrosis markers in a concentration-dependent manner”. Further, in assay [3], the “inhibitory effect on the expression of necrosis markers compared to GSK′872” value is reported as “excellent inhibitory effect”. Moreover, in assay [3] (GRO-α 200 μg/mL), the “expression of markers involved in necrosis compared to the control group” value is given as “reduced the expression of all markers involved in necrosis”. The “cell viability compared to the group treated with GSK′872” value in assay [4] (FIG. 5B) is reported as “high”. Besides, in assay [4], the “cell proliferation (cell morphology)” value is “proliferated” and the cell viability result was “significant increase”. In addition, the “expression of phospho-MLKL, decrease” value in assay [5] came to 76%. Also, the “activity of creatine kinase, decrease” value in assay [6] turned out to be 75%. Moreover, the “expression of phospho-RIP3, decrease” value in assay [7] is 70%.
In the case of `CC(C)S(=O)(=O)c1ccc2nccc(Nc3ccc4scnc4c3)c2c1` [GSK′872, reference compound], in assay [4], the “cell proliferation (cell morphology)” value was “proliferated” and the cell viability entry was “significant increase”.
